The results in this text go back to patent publication US11040959B2, “Diprovocims: a new and potent class of TLR agonists” (The Scripps Research Institute, priority 2016, dated 2021).

Test [1] relates to differentiated human THP-1 cells. As to the kind of experiment: stimulated release of TNF-α from differentiated human THP-1 cells (ELISA, dose-response). The settings on record: for EC50: Homo sapiens. Type of test: cell-based. The procedure, abridged: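 Human THP-1 cells were PMA-differentiated toward macrophages, and stimulated TNF-α release was measured by ELISA. EC50 values were taken from dose-response curves.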

In test [2] the test system is mouse macrophages. As to the kind of experiment: stimulated release of TNF-α from mouse macrophages. Type of test: cell-based. To be noted: Macrophage. In outline:
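EC50 derived from dose-response curves for stimulated TNF-α release from mouse macrophages.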

Setting [3] is: THP-1, table of 133-139 (two lipid side chains), human THP-1 cells, read-out: EC50 (nM) (THP-1).
Setting [4] is: table of 133-139 (two lipid side chains), mouse macrophages, read-out: EC50 (nM) (mouse).
Where [5] appears, read: THP-1, running text, read-out: EC50, stimulated release of TNF-α from differentiated human THP-1 cells.
Setting [6] is: Mus musculus, read-out: EC50, stimulated release of TNF-α from mouse macrophages.
Setting [7] is: THP-1, Table 7, TNF-α release from human THP-1 cells, read-out: EC50 (nM) (THP-1).
Where [8] appears, read: Table 7, TNF-α release from mouse macrophages, read-out: EC50 (nM) (mouse).
The mark [9] stands for this setting: THP-1, Table 3, TNF-α release from human THP-1 cells, read-out: EC50 (nM) (THP-1).
[10] abbreviates: Table 3, TNF-α release from mouse macrophages, read-out: EC50 (nM) (mouse).
Where [11] appears, read: THP-1, Table 1, TNF-α release from human THP-1 cells, read-out: EC50 (nM) (THP-1).
The mark [12] stands for this setting: Table 1, TNF-α release from mouse macrophages, read-out: EC50 (nM) (mouse).

The structures appear in SMILES notation. Read-outs that look alike come from different tables or passages of the source.

Consider `CCCCCCCCNC(=O)[C@@H]1CN(C(=O)c2ccc(C(=O)N3C[C@@H](C(=O)N[C@H]4C[C@@H]4c4ccccc4)[C@H](C(=O)N[C@H]4C[C@@H]4c4ccccc4)C3)cc2)C[C@H]1C(=O)NCCCCCCCC` [Compound 137, (3S,4S)-1-(4-((3S,4S)-3,4-Bis(((1S,2R)-2-phenylcyclopropyl)carbamoyl)pyrrolidine-1-carbonyl)benzoyl)-N^3,N^4-dioctylpyrrolidine-3,4-dicarboxamide], for which the EC50 is 0.17 nM in test [1] (setting [3]) and 10 nM in test [2] (setting [4]).
As for `O=C(NC1C[C@@H]1c1ccc(F)cc1)[C@@H]1CN(C(=O)c2ccc(C(=O)N3C[C@@H](C(=O)NC4C[C@@H]4c4ccc(F)cc4)[C@H](C(=O)NC4C[C@@H]4c4ccc(F)cc4)C3)cc2)C[C@H]1C(=O)NC1C[C@@H]1c1ccc(F)cc1` (stereo partly drawn) [Compound 118, (3S,3′S,4S,4′S)-1,1′-Terephthaloyl-bis(N^3,N^4-bis-((1S,2R)-2-(4-fluorophenyl)cyclopropyl)pyrrolidine-3,4-dicarboxamide)], the EC50 in test [1] (setting [5]) is 0.13 nM; in test [2] (setting [6]), 1.2 nM.
As for `O=C(NCCc1ccc(F)cc1)[C@@H]1CN(C(=O)c2ccc3cc(C(=O)N4C[C@@H](C(=O)NCCc5ccc(F)cc5)[C@H](C(=O)NCCc5ccc(F)cc5)C4)ccc3c2)C[C@H]1C(=O)NCCc1ccc(F)cc1` [Compound 109, (3S,3′S,4S,4′S)-1,1′-(Naphthalene-2,6-dicarbonyl)-bis(N^3,N^4-bis(4-fluorophenethyl)-pyrrolidine-3,4-dicarboxamide)], the EC50 in test [1] (setting [7]) and in test [2] (setting [8]) was more than 5000 nM throughout.
Turning to `O=C(N[C@H]1C[C@@H]1c1ccccc1)[C@@H]1CN(C(=O)c2c(F)c(F)c(C(=O)N3C[C@@H](C(=O)N[C@H]4C[C@@H]4c4ccccc4)[C@H](C(=O)N[C@H]4C[C@@H]4c4ccccc4)C3)c(F)c2F)C[C@H]1C(=O)N[C@H]1C[C@@H]1c1ccccc1` [Compound 60, (3S,3′S,4S,4′S)-1,1′-(Perfluoroterephthaloyl)-bis(N^3,N^4-bis((1S,2R)-2-phenylcyclopropyl)pyrrolidine-3,4-dicarboxamide)], the EC50 in test [1] (setting [9]) was 110 nM; in test [2] (setting [10]), more than 5000 nM.
On to `CCCCCCCCCCCCCCNC(=O)[C@@H]1CN(C(=O)c2ccc(C(=O)N3C[C@@H](C(=O)N[C@H]4C[C@@H]4c4ccccc4)[C@H](C(=O)N[C@H]4C[C@@H]4c4ccccc4)C3)cc2)C[C@H]1C(=O)NCCCCCCCCCCCCCC` [Compound 134, (3S,4S)-1-(4-((3S,4S)-3,4-Bis(((1S,2R)-2-phenylcyclopropyl)carbamoyl)pyrrolidine-1-carbonyl)benzoyl)-N^3,N^4-ditetradecylpyrrolidine-3,4-dicarboxamide], for which the EC50 in test [1] (setting [3]) turned out to be 1.3 nM; in test [2] (setting [4]), 620 nM.
As to `O=C(NCCc1ccc(F)cc1)[C@@H]1CN(C(=O)c2ccc(-c3ccc(C(=O)N4C[C@@H](C(=O)NCCc5ccc(F)cc5)[C@H](C(=O)NCCc5ccc(F)cc5)C4)cc3)cc2)C[C@H]1C(=O)NCCc1ccc(F)cc1` [Compound 104, (3S,3′S,4S,4′S)-1,1′-([1,1′-Biphenyl]-4,4′-dicarbonyl)bis(N^3,N^4-bis(4-fluoro-phenethyl)-pyrrolidine-3,4-dicarboxamide)], the EC50 in test [1] (setting [7]) and in test [2] (setting [8]) was more than 5000 nM throughout.
For `CC(C)(C)OC(=O)CCOCCOCCOCCOc1cc(C(=O)N2C[C@@H](C(=O)N[C@H]3C[C@@H]3c3ccccc3)[C@H](C(=O)N[C@H]3C[C@@H]3c3ccccc3)C2)ccc1C(=O)N1C[C@@H](C(=O)N[C@H]2C[C@@H]2c2ccccc2)[C@H](C(=O)N[C@H]2C[C@@H]2c2ccccc2)C1` [Compound 148, tert-Butyl 3-(2-(2-(2-(2,5-Bis((3S,4S)-3,4-bis(((1S,2R)-2-phenyl-cyclopropyl)carbamoyl)-pyrrolidine-1-carbonyl)-phenoxy)ethoxy)ethoxy)-ethoxy)propanoate], the EC50 in test [1] (THP-1, table of functionalized derivatives 147-151, human THP-1 cells, read-out: EC50 (nM) (THP-1)) was 190 nM; in test [2] (table of functionalized derivatives 147-151, mouse macrophages, read-out: EC50 (nM) (mouse)), more than 5000 nM.
For `O=C(N[C@H]1C[C@@H]1c1ccccc1)[C@@H]1CN(C(=O)c2ccc(C(=O)N3C[C@@H](C(=O)N[C@H]4C[C@@H]4c4ccccc4)[C@H](C(=O)N[C@H]4C[C@@H]4c4ccccc4)C3)cc2)C[C@H]1C(=O)N[C@H]1C[C@@H]1c1ccccc1` (racemic) [Compound 12, trans, trans-1,1′-Terephthaloylbis-(N^3,N^4-bis-(trans-2-phenylcyclopropyl)pyrrolidine-3,4-dicarboxamide)], the EC50 in test [1] (setting [5]) amounted to 10 nM; in test [2] (setting [6]), 100 nM. Besides, the “efficacy of TNF-α release compared with reference agonist” value in test [1] (versus LPS or Pam3CSK4, side-by-side) is given as “equally efficacious with LPS”.
`CCCCCCCCCCNC(=O)[C@@H]1CN(C(=O)c2ccc(C(=O)N3C[C@@H](C(=O)N[C@H]4C[C@@H]4c4ccccc4)[C@H](C(=O)N[C@H]4C[C@@H]4c4ccccc4)C3)cc2)C[C@H]1C(=O)NCCCCCCCCCC` [Compound 136, (3S,4S)-1-(4-((3S,4S)-3,4-Bis(((1S,2R)-2-phenylcyclopropyl)carbamoyl)pyrrolidine-1-carbonyl)benzoyl)-N^3,N^4-didecylpyrrolidine-3,4-dicarboxamide]: the EC50 in test [1] (setting [3]) was determined as 0.28 nM; in test [2] (setting [4]), 60 nM.
On to `CCCCCCCCCCNC(=O)[C@@H]1CN(C(=O)c2ccc(C(=O)N3C[C@@H](C(=O)NCCCCCCCCCC)[C@H](C(=O)NCCCCCCCCCC)C3)cc2)C[C@H]1C(=O)NCCCCCCCCCC` [Compound 143, (3S,3′S,4S,4′S)-1,1′-Terephthaloylbis(N^3,N^4-didecylpyrrolidine-3,4-dicarboxamide)], for which the EC50 in test [1] (THP-1, table of 140-146 (four lipid side chains), human THP-1 cells, read-out: EC50 (nM) (THP-1)) was more than 5000 nM; in test [2] (table of 140-146 (four lipid side chains), mouse macrophages, read-out: EC50 (nM) (mouse)) it was more than 5000 nM.
As to `O=C(NCCc1ccc(F)cc1)[C@@H]1CN(C(=O)c2ccc(C(=O)N3C[C@@H](C(=O)NCCc4ccc(F)cc4)[C@H](C(=O)NCCc4ccc(F)cc4)C3)c(O)c2)C[C@H]1C(=O)NCCc1ccc(F)cc1` [Compound 110, (3S,3′S,4S,4′S)-1,1′-(2-Hydroxy-terephthaloyl)-bis(N^3,N^4-bis(4-fluorophenethyl)-pyrrolidine-3,4-dicarboxamide)], the EC50 in test [1] (setting [7]) was 130 nM; in test [2] (setting [8]) it was more than 5000 nM.
On to `O=C(N[C@H]1C[C@@H]1c1ccccc1)[C@@H]1CN(C(=O)[C@@H]2CCC[C@H](C(=O)N3C[C@@H](C(=O)N[C@H]4C[C@@H]4c4ccccc4)[C@H](C(=O)N[C@H]4C[C@@H]4c4ccccc4)C3)C2)C[C@H]1C(=O)N[C@H]1C[C@@H]1c1ccccc1` [Compound 41, (3S,3′S,4S,4′S)-1,1′-(cis-1,3-Cyclohexane-dicarbonyl)bis(N^3,N^4-bis((1S,2R)-2-phenyl-cyclopropyl)pyrrolidine-3,4-dicarboxamide)], for which the EC50 in test [1] (setting [11]) and in test [2] (setting [12]) was more than 5000 nM each time.
On to `O=C(N[C@H]1C[C@@H]1c1ccccc1)[C@@H]1CN(C(=O)[C@H]2CC[C@@H](C(=O)N3C[C@@H](C(=O)N[C@H]4C[C@@H]4c4ccccc4)[C@H](C(=O)N[C@H]4C[C@@H]4c4ccccc4)C3)CC2)C[C@H]1C(=O)N[C@H]1C[C@@H]1c1ccccc1` [Compound 43, (3S,3′S,4S,4′S)-1,1′-(cis-1,4-Cyclohexane-dicarbonyl)bis(N^3,N^4-bis((1S,2R)-2-phenylcyclopropyl)-pyrrolidine-3,4-dicarboxamide)], for which the EC50 in test [1] (setting [11]) and in test [2] (setting [12]) was more than 5000 nM in each case.
Consider `O=C(N[C@H]1C[C@@H]1c1ccccc1)[C@@H]1CN(C(=O)c2cccc(C(=O)N3C[C@@H](C(=O)N[C@H]4C[C@@H]4c4ccccc4)[C@H](C(=O)N[C@H]4C[C@@H]4c4ccccc4)C3)c2)C[C@H]1C(=O)N[C@H]1C[C@@H]1c1ccccc1` [Compound 38, (3S,3′S,4S,4′S)-1,1′-Isophthaloyl-bis-(N^3,N^4-bis((1S,2R)-2-phenylcyclopropyl)-pyrrolidine-3,4-dicarboxamide)], for which the EC50 in test [1] (setting [11]) and in test [2] (setting [12]) was more than 5000 nM in each case.
For `O=C(NCCc1ccc(F)cc1)[C@@H]1CN(C(=O)c2ccc(C(=O)N3C[C@@H](C(=O)NCCc4ccc(F)cc4)[C@H](C(=O)NCCc4ccc(F)cc4)C3)cc2)C[C@H]1C(=O)NCCc1ccc(F)cc1` [Compound 4, (3S,3′S,4S,4′S)-1,1′-Terephthaloylbis(N^3,N^4-bis(4-fluorophenethyl)-pyrrolidine-3,4-dicarboxamide)], the EC50 in test [1] (setting [7]) is 50 nM; in test [1] (setting [5]), 50 nM; in test [2] (setting [8]) it was more than 5000 nM. The “fold more potent than the all racemate” value in test [1] (human THP-1 cells, single enantiomer versus its all racemate mixture) was 3 fold.
`O=C(N[C@H]1C[C@@H]1c1ccccc1)[C@@H]1CN(C(=O)c2ccc(C(=O)N3C[C@@H](C(=O)N[C@H]4C[C@@H]4c4ccccc4)[C@H](C(=O)N[C@H]4C[C@@H]4c4ccccc4)C3)c(Br)c2)C[C@H]1C(=O)N[C@H]1C[C@@H]1c1ccccc1` [Compound 58, (3S,3′S,4S,4′S)-1,1′-(2-Bromoterephthaloyl)-bis(N^3,N^4-bis((1S,2R)-2-phenylcyclopropyl)pyrrolidine-3,4-dicarboxamide)]: the EC50 is 5 nM in test [1] (setting [9]) and 10 nM in test [2] (setting [10]).
